Data taken from US10842756B2 (BIOVIIIX S.R.L., priority 2015, dated 2020).

Tests used:
[1] = bolus of 600 mg of 5FU, cited from earlier work
[2] = Release kinetics of the drug by micro-dialysis (QuixSep) into PBS pH 7.4; assay type: physicochemical; conditions: 5FU solution in PBS at 200 μg/ml; up to 60 minutes; ambient temperature
Procedure: In particular, as a receiving step a PBS (phosphate buffered saline) at pH=7.4 was analysed. The method used is micro-dialysis by means of a system known as QuixSep® with a Spectra/pore membrane, MWCO=3500 Da.
The system was maintained under constant magnetic stirring, at ambient temperature, taking samples of the receiving step at predetermined times and re-integrating the collected volume.
The samples were analysed and the values obtained were plotted considering the single collections and re-integrations from the preceding step, so as to obtain a dissolution/release profile.
The data relating to the release percentage were calculated on the basis of a drug loading determined by LC-MS/MS analysis.

dissolution of the free drug [2]: 70%
SMILES: O=c1[nH]cc(F)c(=O)[nH]1 [Batch 5FU, 5-fluorouracil]
plasmatic concentration of 5FU ([1]; after 25 minutes): 10 µg/mL | Cmax ([1]; body surface of 1.7): about 50 μg/ml
